Test [1] deals with HIF-2α HIS TAG-PASB Domain. The test is described as follows: biochemical. The format is binding. The following applies: displacement of Compound 120 probe; mean; read-out: Mean SPA IC50. A digest of the protocol: (§1)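 Scintillation proximity assay with His-tagged protein bound to SPA beads; test compounds in DMSO displace a tritium-labelled probe ligand, lowering bead light emission. Percent inhibition calculated against high and low controls, with IC50 fitted from it.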

The next test deals with 786-O-Hif-Luc cells. The test is described as follows: Luciferase Assay (HIF responsive element reporter). The format is cell-based. The following applies: 786-O-Hif-Luc cells, about 24 hours, read-out: Mean Luciferease EC50. How it is done: A pool of infected cells were then selected against 2 μg/mL of puromycin (P8833, Sigma) for 10 days followed by limited dilution to select single clones.
Each concentration was tested in triplicate. After about 24 hours, luciferase activity was determined using ONE-Glo Luciferase Assay Reagent (E6110, Promega) following the manufacturer's recommended procedure. EC50 were calculated by using Dotmatics software.

Test [2] relates to HIF-2α and HIF-2α-regulated genes in 786-O xenograft. The test is described as follows: In vivo PK/PD study: tumor mRNA levels by qRT-PCR. Also noted: species or system SCID/Biege mice. The settings on record: 786-O xenograft mice, 10 mg/kg oral gavage three times at 12 hour intervals, 12 hours post last dose. How it is done:
(§2) About 5×10^6 renal cell carcinoma 786-O tumor cells (ATCC® CRL-1932™, VHL and HIF-1α null cell line) in PBS and Matrigel (1:1 in volume) were injected subcutaneously in the right flanks of SCID/Biege mice at 6-7 weeks of age for xenograft development. When the xenografts reached about 450 mm^3 in size, the tumor-bearing mice were randomly divided into two groups (4 mice in each group). […] Animals were sacrificed at 12 hours post last dose. Tumors and plasma were collected from each animal. Total RNA was extracted from the tumors. The mRNA levels of HIF-2α and its respective target genes were determined by qRT-PCR.
Background: Real-time PCR tracks product formation cycle by cycle.

For the next test, the system named is human VEGFA. The test is described as follows: In vivo PK/PD study: plasma human VEGFA by ELISA. Also noted: species or system SCID/Biege mice. The settings on record: 786-O tumor-bearing mice, 10 mg/kg oral gavage three times at 12 hour intervals. How it is done: as §2
The plasma level of human VEGFA was determined by ELISA assay.
On the technique in general: In an ELISA, binding on a coated surface is turned into a signal by an enzyme label.

The subject of test [3] is renal cell carcinoma 786-O xenograft. The test is described as follows: In vivo efficacy study, 786-O xenograft. Also noted: species or system SCID/Biege mice.
Test [4] concerns the target HIF-2α HIS TAG-PASB Domain (Homo sapiens, UniProt Q99814). The test is described as follows: biochemical. The format is binding. The following applies: displacement of Compound 120 probe; mean; read-out: Mean SPA IC50. A digest of the protocol: as §1
For test [5], the system named is VEGF in culture medium of 786-O cells. Kind of test: VEGF ELISA Assay. The format is cell-based. The following applies: Homo sapiens, 786-0. How it is done:
Four hours later, serial dilutions of 10× compound stocks were made in growth medium from 500×DMSO stocks, and 20 μL of those 10× stocks were added to each well to make final concentrations as follows (μM): 20, 6.7, 2.2, 0.74, 0.25, 0.082, 0.027, 0.009, 0.003, 0.001, 0. Each concentration had duplicated wells. About twenty hours later, the growth medium was removed by suction and each well was supplied with 180 μL of growth medium. About 20 μl freshly-made 10× compound stocks were added to each well. […] The EC50 was calculated by GraphPad Prism using the dose-response-inhibition (four parameter) equation. The cell seeded plate was then subjected to CellTiter-Glo luminescence cell viability assay (Promega) by adding about 50 μL of Celltiter Glo reagent into each well and shaking the plate for 8 minutes at 550 rpm (Thermomixer R, Eppendorf). The luminescence signals were read in a plate reader (3 second delay, 0.5 second/well integration time, Synergy 2 multi Detection Microplate reader) immediately.

pEC50, pIC50: −log10 of the molar value. “Also recorded” adds a separate entry of the source. Like-named read-outs stand apart in the source and are kept apart here.

Sequence of HIF-2α HIS TAG-PASB Domain (Q99814 whole entry, looked up, the tested form may be a part): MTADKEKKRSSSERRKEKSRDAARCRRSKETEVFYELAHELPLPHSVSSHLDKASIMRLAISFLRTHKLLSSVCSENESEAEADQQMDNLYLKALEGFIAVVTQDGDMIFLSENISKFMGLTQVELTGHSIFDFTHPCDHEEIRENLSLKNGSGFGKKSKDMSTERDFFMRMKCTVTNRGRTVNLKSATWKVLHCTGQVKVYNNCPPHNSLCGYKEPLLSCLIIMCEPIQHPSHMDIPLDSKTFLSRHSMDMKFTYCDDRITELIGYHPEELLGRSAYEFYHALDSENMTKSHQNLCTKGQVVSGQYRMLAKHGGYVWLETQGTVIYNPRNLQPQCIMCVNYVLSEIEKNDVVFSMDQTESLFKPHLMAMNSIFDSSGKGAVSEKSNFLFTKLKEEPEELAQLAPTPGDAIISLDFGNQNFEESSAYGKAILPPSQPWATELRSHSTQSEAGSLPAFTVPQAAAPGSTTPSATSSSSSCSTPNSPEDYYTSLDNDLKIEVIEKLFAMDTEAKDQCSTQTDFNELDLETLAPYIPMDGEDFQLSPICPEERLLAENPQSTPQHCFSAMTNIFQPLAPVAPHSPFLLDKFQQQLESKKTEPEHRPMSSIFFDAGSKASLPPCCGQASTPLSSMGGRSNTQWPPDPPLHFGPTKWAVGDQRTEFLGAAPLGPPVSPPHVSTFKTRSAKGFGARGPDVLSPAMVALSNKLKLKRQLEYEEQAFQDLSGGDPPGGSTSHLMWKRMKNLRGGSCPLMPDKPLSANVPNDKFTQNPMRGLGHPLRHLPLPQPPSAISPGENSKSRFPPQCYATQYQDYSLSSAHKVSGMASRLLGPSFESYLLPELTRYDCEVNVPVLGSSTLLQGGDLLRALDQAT

As to `N#Cc1cc(F)cc(Oc2ccc3c(c2C(F)F)[C@@H](O)C(F)(F)S3(=O)=O)c1` [Compound 3, (R)-3-((4-(Difluoromethyl)-2,2-difluoro-3-hydroxy-1,1-dioxido-2,3-dihydrobenzo[b]thiophen-5-yl)oxy)-5-fluorobenzonitrile], the pIC50 (as a rule, −log10 of the IC50, conventionally taken in molar units) in test [1] is […]. The pEC50 – broadly, the negative decadic logarithm of the EC50, by convention in mol/L – in the test with 786-O-Hif-Luc cells was 8.15. Also, in test [2], the “Tumor mRNA for HIF-1α and HIF-1α specific target genes (PGK1 and PDK1)” value is reported as “no significant effect; also recorded: no significant changes”; the “Tumor mRNA for HIF-2α and HIF-2α specific target genes (PAI-1 and CCND1)” value was “reduced; also recorded: significant reduction”. Also, the “Plasma level of human VEGFA” value in the test on human VEGFA is recorded as “reduced; also recorded: undetectable level”. In test [3] (10 mg/kg b.i.d. oral gavage for 21 days, versus vehicle), the “Effect on tumor size” value was “tumor size reduction and regression; also recorded: statistically significant reduction of tumor size”. Also, the “Tumor size Mean ± SEM” value in test [3] (10 mg/kg b.i.d. oral gavage, after 21 days of dosing) is listed as 57 ± 5.6 mm^3.
`N#Cc1cncc(Oc2ccc3c(c2Br)[C@@H](O)C(F)(F)S3(=O)=O)c1` [Compound 78, (R)-5-((4-Bromo-2,2-difluoro-3-hydroxy-1,1-dioxido-2,3-dihydrobenzo[b]thiophen-5-yl)oxy)nicotinonitrile]: the pIC50 in test [4] is 6.92. Further, the negative-log EC50 (pEC50) in test [5] is 6.48; in the test on 786-O-Hif-Luc cells (24 h), 7.02.

The record behind these values is patent US9884843B2 (Peloton Therapeutics, Inc., priority 2013, dated 2018).
